Several values for one entry are separate records, joined by “and”; a condition that tells them apart may be missing. Equal values may be shown once. Activity calls are given as the source filed them.
Tests used:
Cytochrome P450 2C9 = Cytochrome P450 2C9 (Homo sapiens, UniProt P11712)
Cytochrome P450 2C19 = Cytochrome P450 2C19 (Homo sapiens, UniProt P33261); experiment: Cytochrome panel assay with activity outcomes. Panel member name: p450-cyp2c19 Compounds with AC50 equal or less than 10 uM are considered active; type: functional
Cytochrome P450 1A2 = molecular target: T1, Cytochrome P450 1A2 (Homo sapiens, UniProt P05177);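 also: PubChem cytochrome P450 panel assay, CYP1A2 panel member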
T1 sequence (P05177 whole entry): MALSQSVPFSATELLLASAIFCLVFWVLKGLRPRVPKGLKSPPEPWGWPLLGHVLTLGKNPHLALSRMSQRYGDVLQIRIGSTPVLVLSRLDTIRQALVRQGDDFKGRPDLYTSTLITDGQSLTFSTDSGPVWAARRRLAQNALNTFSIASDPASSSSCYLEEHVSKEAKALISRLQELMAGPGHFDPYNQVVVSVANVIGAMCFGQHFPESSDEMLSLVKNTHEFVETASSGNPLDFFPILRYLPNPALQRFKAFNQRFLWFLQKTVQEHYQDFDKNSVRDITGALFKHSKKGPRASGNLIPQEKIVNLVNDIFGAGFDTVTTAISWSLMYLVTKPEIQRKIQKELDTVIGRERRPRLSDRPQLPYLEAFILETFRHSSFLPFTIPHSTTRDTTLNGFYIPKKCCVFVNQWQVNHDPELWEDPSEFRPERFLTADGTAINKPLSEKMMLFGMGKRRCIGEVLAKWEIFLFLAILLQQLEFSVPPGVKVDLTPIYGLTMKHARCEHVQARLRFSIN

[1] = molecular target: T2, Corticotropin-releasing factor receptor 2/Corticotropin-releasing factor-binding protein (Homo sapiens, UniProt P24387+Q13324); experiment: activators of CRF receptor 2 with binding protein – uHTS hits, confirmation (AID 602473); type: functional; conditions: read-out: EC50_Mean
T2 sequence (Q13324 whole entry): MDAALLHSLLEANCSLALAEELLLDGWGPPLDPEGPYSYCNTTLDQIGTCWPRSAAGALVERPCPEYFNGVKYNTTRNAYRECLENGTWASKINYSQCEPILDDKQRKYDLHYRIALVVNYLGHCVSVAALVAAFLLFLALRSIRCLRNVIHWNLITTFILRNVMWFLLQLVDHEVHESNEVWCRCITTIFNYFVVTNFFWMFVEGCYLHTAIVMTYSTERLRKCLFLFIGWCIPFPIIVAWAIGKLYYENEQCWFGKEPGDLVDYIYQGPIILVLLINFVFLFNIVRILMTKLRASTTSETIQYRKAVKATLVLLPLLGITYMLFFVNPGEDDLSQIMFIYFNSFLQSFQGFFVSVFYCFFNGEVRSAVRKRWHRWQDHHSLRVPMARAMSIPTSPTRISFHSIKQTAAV
T2 sequence (P24387 whole entry): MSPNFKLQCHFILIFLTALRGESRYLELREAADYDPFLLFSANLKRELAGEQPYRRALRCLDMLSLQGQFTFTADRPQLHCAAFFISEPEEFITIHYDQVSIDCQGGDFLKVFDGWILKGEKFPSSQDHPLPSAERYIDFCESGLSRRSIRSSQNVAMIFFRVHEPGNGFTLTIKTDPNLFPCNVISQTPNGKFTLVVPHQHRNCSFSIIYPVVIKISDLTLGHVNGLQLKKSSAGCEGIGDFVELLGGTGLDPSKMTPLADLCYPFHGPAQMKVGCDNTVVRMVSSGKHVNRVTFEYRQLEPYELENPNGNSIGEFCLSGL

[2] = inhibitors of intracellular T. cruzi replication, confirmation, NIH3T3 host cells, beta-gal luminescence (AID 2044); type: functional, cell-based;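 also: intracellular parasites grown in NIH/3T3 mouse fibroblasts as host cells; luminescent beta-galactosidase reporter signal from transgenic T. cruzi replicating inside host cells; inhibitors lower the luminescence signal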
[3] = cytotoxicity toward NIH3T3 fibroblasts, dose response, counter-screen, cell-based, ATP luminescence, mouse fibroblasts (AID 2010); type: functional;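 also: cells exposed to compound for about 90 hours before reading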
[4] = Luminescence Cell-Based Dose Confirmation HTS to Identify Activators of 5'UTR Stem-Loop Driven Alpha-Synuclein mRNA Translation in H4 Neuroglioblastoma Cells. [Related pubchem assays: 1829 (Project Summary), 1814 (Primary HTS)]; type: functional
[5] = Luminescence Cell-Based Dose Response HTS to Identify Activators of Luciferase Translation or Activity in H4 […] Cells. [Related pubchem assays: 1829 (Project Summary), 1814 (Primary HTS)]; type: functional
H4 = experiment: Luminescence Cell-Based Dose Response HTS to Identify Activators of 5'UTR Stem-Loop Driven Prion Protein mRNA Translation in H4 Neuroglioblastoma Cells. [Related pubchem assays: 1829 (Project Summary), 1814 (Primary HTS)]; type: functional; conditions: Homo sapiens

Sequence of Cytochrome P450 2C9 (P11712 whole entry): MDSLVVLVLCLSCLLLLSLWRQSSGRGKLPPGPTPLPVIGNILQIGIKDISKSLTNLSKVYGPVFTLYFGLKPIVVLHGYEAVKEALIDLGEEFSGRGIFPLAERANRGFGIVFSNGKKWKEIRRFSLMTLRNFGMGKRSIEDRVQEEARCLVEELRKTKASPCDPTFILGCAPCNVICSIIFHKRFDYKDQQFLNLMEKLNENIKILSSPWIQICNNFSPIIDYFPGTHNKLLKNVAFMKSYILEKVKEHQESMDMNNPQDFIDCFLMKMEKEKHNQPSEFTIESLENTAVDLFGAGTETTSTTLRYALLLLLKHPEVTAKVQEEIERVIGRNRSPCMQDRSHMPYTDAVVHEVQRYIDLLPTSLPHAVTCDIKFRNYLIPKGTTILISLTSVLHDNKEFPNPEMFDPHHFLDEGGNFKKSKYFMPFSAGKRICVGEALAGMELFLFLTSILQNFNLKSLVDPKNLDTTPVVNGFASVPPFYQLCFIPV
Sequence of Cytochrome P450 2C19 (P33261 whole entry): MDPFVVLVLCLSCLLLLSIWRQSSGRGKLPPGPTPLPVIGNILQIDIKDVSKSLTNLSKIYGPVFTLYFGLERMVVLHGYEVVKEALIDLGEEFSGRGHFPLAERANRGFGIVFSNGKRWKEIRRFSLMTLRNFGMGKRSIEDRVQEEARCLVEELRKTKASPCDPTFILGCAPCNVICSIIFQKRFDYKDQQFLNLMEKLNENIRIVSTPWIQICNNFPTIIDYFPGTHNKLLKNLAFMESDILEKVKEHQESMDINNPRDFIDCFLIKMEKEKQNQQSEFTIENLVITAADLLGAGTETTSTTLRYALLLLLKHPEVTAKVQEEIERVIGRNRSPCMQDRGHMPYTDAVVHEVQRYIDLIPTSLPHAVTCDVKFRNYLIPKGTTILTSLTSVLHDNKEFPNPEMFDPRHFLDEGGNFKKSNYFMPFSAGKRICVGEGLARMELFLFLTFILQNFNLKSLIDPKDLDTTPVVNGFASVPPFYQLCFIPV

O=C(Nc1ccccc1)N1CCOCC1
AC50 (Cytochrome P450 2C9): 0.562 µM (inconclusive) | AC50 (Cytochrome P450 2C19; read-out: AC50): 31.6 µM (inconclusive)

Cc1ccc(-c2ccc(CCC(=O)O)o2)cc1
AC50 (Cytochrome P450 1A2): 25.1 µM (inconclusive)

Cc1cccc(C)c1N1CCN(S(=O)(=O)N2CCCCC2)CC1
EC50 [1]: 5.58 µM (active)

COc1ccc(N(CC(=O)O)N=O)cc1
AC50 (Cytochrome P450 1A2): 0.0251 µM (inconclusive) | AC50 (Cytochrome P450 2C19): inconclusive

COc1ccc(Cn2nnnc2C(c2ccccn2)N2CCN(c3cc(Cl)ccc3C)CC2)cc1 (stereo not given)
EC50 [2]: 2.04 µM (active) | EC50 [3]: > 60 µM (not active)

CCN1C(=S)SC(=O)C1=C1C=C(C)N(CCO)C(C)=C1
EC50 [4]: 0.102 µM (active)

COc1ccc(C2=CC(c3cccc(OC)c3)n3nnnc3N2)cc1 (stereo not given)
EC50 [1]: > 53 µM (inactive)

Cn1cc(-c2nc3cnc(Oc4ccccc4)nc3n(C)c2=O)c2ccccc21
AC50 (Cytochrome P450 1A2): 12.6 µM (inconclusive)

COc1cc(=O)n(C)c2c(OC[C@@H](O)C(C)(C)O)cccc12
AC50 (Cytochrome P450 1A2): 20 µM (inconclusive) and 12.6 µM (inconclusive)

CN(Cc1ccco1)c1ncnc2ccc(-c3ccc4c(c3)OCO4)cc12
AC50 (Cytochrome P450 2C9): 1.26 µM (inconclusive)

COC(=O)Cn1ncn2c(cc3oc(C)cc32)c1=O
EC50 [5]: 56 µM (active) | EC50 [4]: 2.68 µM (active) | EC50 (H4): 14.7 µM (active)

COc1cccc2nc(O)c(-c3ccccc3)cc12
EC50 [5]: 8.86 µM (active) | EC50 [4]: 9.22 µM (active)

CN1CCN(NC(=O)Nc2cccc(Cl)c2Cl)CC1
EC50 [2]: 0.184 µM (active) | EC50 [3]: > 60 µM (not active)

Cc1cc(C)c(C(=O)Cn2cnc3cc([N+](=O)[O-])ccc3c2=O)cc1C
EC50 [2]: 1.61 µM (active) | EC50 [3]: > 60 µM (not active)

COc1ccc(C(=O)NCC(=O)N2CCN(C(=O)c3ccco3)CC2)cc1
EC50 [1]: > 53 µM (inactive)

COc1ccc([N+](=O)[O-])c2c1CCN2C(=O)CC[C@H](N)C(=O)O
AC50 (Cytochrome P450 1A2): 31.6 µM (inconclusive)

O=C(c1ccc(Cl)cc1)C1CCCN(Cc2cccn2-c2cccnc2)C1 (stereo not given)
EC50 [2]: 2.58 µM (active) | EC50 [3]: > 60 µM (not active)

O=C(c1ccc2nc3ccc(Cl)cc3c(=O)n2c1)N1CCOCC1
AC50 (Cytochrome P450 1A2): 14.1 µM (inconclusive)

CCNc1ncc2nc(-c3cccs3)c(=O)n(-c3ccccc3)c2n1
AC50 (Cytochrome P450 1A2): 1.58 µM (inconclusive)

COc1ccccc1CNc1ccnc(-c2ccoc2)n1
AC50 (Cytochrome P450 2C9): 1.26 µM (inconclusive)

COc1ccc(N(CC(=O)NCCC2=CCCCC2)S(=O)(=O)c2ccc(C)cc2)cc1
EC50 [2]: 2.31 µM (active) | EC50 [3]: > 30 µM (not active)

O=C(CCc1nnc(C2CCCCC2)o1)N1CCN(c2ccccc2F)CC1
EC50 [5]: 11.8 µM (active) | EC50 [4]: 9.13 µM (active)

COc1ccc(CN2CCn3ncc(C(=O)Nc4ccccc4)c3C2=O)cc1
EC50 [5]: 66.6 µM (active) | EC50 [4]: 14.2 µM (active) | EC50 (H4): 18.9 µM (inconclusive)

Cc1ccc(NC(=O)C2CCN(c3cnccn3)CC2)cc1
EC50 [2]: 0.9 µM (active) | EC50 [3]: > 60 µM (not active)

Cc1c(NC2=N/C(=N\C(=O)c3cccs3)c3ccccc32)c(=O)n(-c2ccccc2)n1C
EC50 [1]: 5.98 µM (active)

Cc1cc(NS(=O)(=O)c2ccc(NC(=O)c3cccc(OC(F)F)c3)cc2)nc(C)n1
EC50 [1]: > 53 µM (inactive)

CCOCCCN1CC(C(=O)NCCc2ccc(C)cc2)CC1=O (stereo not given)
AC50 (Cytochrome P450 2C19; read-out: AC50): 25.1 µM (inconclusive)

Cc1cc(C)n(CCc2nc(-c3cc4ccccc4o3)cs2)n1
EC50 [5]: 9.04 µM (active) | EC50 [4]: 7.17 µM (active) | EC50 (H4): 60.2 µM (active)

O=C(CCl)NN1C(=O)NC(c2ccccc2)(c2ccccc2)C1=O
EC50 [5]: > 120 µM (not active) | EC50 [4]: 13.1 µM (active) | EC50 (H4): > 120 µM (not active)

C=CC(=O)NC(C)(C)Cc1ccccc1
AC50 (Cytochrome P450 2C9): 10 µM (inconclusive)

Cc1c(C)n(CCCN(C)C)c2ncnc(NCc3ccccc3)c12
EC50 [2]: 0.911 µM (active) | EC50 [3]: > 60 µM (not active)

CCOc1ccc2nc(O)c(CN(CCc3ccccc3)C(=O)N3CCOCC3)cc2c1
AC50 (Cytochrome P450 1A2): 17.8 µM (inconclusive)

COc1ccc(N2C(=O)CCC(C(=O)Nc3ccccn3)C2c2ccc(OC)c(OC)c2)cc1 (stereo not given)
AC50 (Cytochrome P450 2C9): 3.16 µM (inconclusive)

CCc1nnc(NC(=O)CSc2nc(C3CCCCC3)nc3ccccc23)s1
AC50 (Cytochrome P450 2C9): 3.55 µM (inconclusive) | AC50 (Cytochrome P450 2C19; read-out: AC50): 5.01 µM (inconclusive)

O=C(/C=C/c1ccco1)NCCc1ccccc1
EC50 [5]: 14.5 µM (active) | EC50 [4]: 10.9 µM (active) | EC50 (H4): > 120 µM (not active)

CCOc1ccc(NC(=O)c2ccc(Br)o2)c([N+](=O)[O-])c1
AC50 (Cytochrome P450 1A2): 3.55 µM (inconclusive)

O=[N+]([O-])c1ccc(-[n+]2c(-c3ccccc3)cc(-c3ccccc3)cc2-c2ccccc2)cc1.[O-][Cl+3]([O-])([O-])[O-]
EC50 [2]: 0.264 µM (active) | EC50 [1]: 5.02 µM (active) | EC50 [3]: > 60 µM (not active)

CN1CCc2c(sc3c2C(=O)NC(c2cccc(OC(=O)c4cccs4)c2)N3)C1 (stereo not given)
EC50 [5]: 8.11 µM (active) | EC50 [4]: 6.46 µM (active) | EC50 (H4): 40 µM (active)

O=C(Nc1ncc(S(=O)(=O)c2ccc([N+](=O)[O-])cc2)s1)c1ccccc1F
EC50 [1]: 4.81 µM (active)

O=c1c2c3c(sc2nc2n1N=C(c1cccs1)CS2)CCCC3
EC50 (H4): 0.118 µM (active)

COc1ccc(C(=O)NCCn2ccc3ccccc32)cc1
EC50 [5]: 0.132 µM (active) | EC50 [4]: 0.185 µM (active) | EC50 (H4): 0.488 µM (active)

CCOC(=O)CSc1nc(N2CCOCC2)c2c(c1C#N)CC(C)(C)N(C)C2
EC50 [1]: > 53 µM (inactive)

CC1(C)CN=C(N(Cc2ccccc2)C(=O)Nc2ccccc2)S1
EC50 [5]: 13.1 µM (active) | EC50 [4]: 12.5 µM (active) | EC50 (H4): 18.8 µM (active)

CC(=O)c1ccc(S(=O)(=O)N(Cc2cc3cc4c(cc3nc2O)OCCO4)CC2CCCO2)cc1 (stereo not given)
EC50 [5]: 6.68 µM (active) | EC50 [4]: 13.6 µM (active) | EC50 (H4): 26.3 µM (active)

CCCc1cc2c(cc1NC(=O)c1ccccc1C)OCO2
AC50 (Cytochrome P450 2C9): 0.0562 µM (inconclusive)

NC(=O)N/N=C\c1ccc([N+](=O)[O-])o1
AC50 (Cytochrome P450 1A2): 12.6 µM (inconclusive)

Cc1nc2ncnn2c(C)c1CCC(=O)NC(C)c1ccc2c(c1)OCCO2 (stereo not given)
AC50 (Cytochrome P450 2C19; read-out: AC50): 8.91 µM (inconclusive)

Fc1ccccc1OCCSc1[nH]cnc2ncnc1-2
EC50 [5]: 13 µM (active) | EC50 [4]: > 120 µM (not active) | EC50 (H4): 14.9 µM (active)

Cc1ccc(-n2c(=O)[nH]cc(C(=O)N3CCc4ccccc43)c2=O)cc1
AC50 (Cytochrome P450 2C9): 1 µM (inconclusive)

Cc1nnc(O)n1-c1cccc(C(F)(F)F)c1
AC50 (Cytochrome P450 1A2): 5.62 µM (inconclusive)

O=C(N/N=C/c1ccc([N+](=O)[O-])cc1)c1ccc(COc2ccccc2-c2ccccc2)cc1
EC50 [2]: 1.55 µM (active) | EC50 [3]: > 30 µM (not active)

COc1cc(/C=N/NC2=NC(=O)C(CC(=O)O)S2)ccc1OCc1cccc(Cl)c1 (stereo not given)
EC50 [5]: 10.1 µM (active) | EC50 [4]: 6.12 µM (active) | EC50 (H4): 19.7 µM (active)

Cc1cccc2c1OCC/C2=N\NC(=O)COc1ccccc1Cl
AC50 (Cytochrome P450 2C19; read-out: AC50): 0.708 µM (inconclusive)

O=C1C=C(c2ccc3[nH]ccc3c2)CCC1
EC50 [5]: 46.4 µM (active) | EC50 [4]: 16 µM (active) | EC50 (H4): 9.94 µM (active)

Cc1ccc(NCc2ccccc2)cc1 [N-BENZYL-4-METHYLANILINE]
EC50 [2]: 5.25 µM (active) | EC50 [3]: > 60 µM (not active)
